From patent publication US20170246144A1, “METHOD OF PREVENTING OR TREATING SPINOCEREBELLAR ATAXIA BY ADMINISTRATING SILIBININ” (National Taiwan Normal University, priority 2016, published 2017) come the findings set out here.

Structures are written as SMILES.

As a reminder, the IC50 is the point on the concentration scale where inhibition reaches its midpoint.

The test system of assay [1] is SH-SY5Y cells. Description: MTT cytotoxicity of silibinin toward SH-SY5Y cells. Format: cell-based. The following applies: Homo sapiens, 24 hours, read-out: cyto-toxicity toward SH-SY5Y cells, IC50. An excerpt: FIGS. 1A and 1B show the effects of silibinin (SB) in reducing the death of SH-SY5Y cell induced by mono-sodium glutamate (MSG). […] Data were the mean values of three independent experiments. Ctrl: control group.
In order to monitor the cyto-toxicity of silibinin and its ability in resisting glutamatergic excitotoxicity, MTT colorimetric assay was used to measure the cell viability rate of neuroblastoma SH-SY5Y cells which were pre-treated with silibinin and mono-sodium glutamate (MSG).
After the treatment, 0.5 mg/mL MTT was added to the culture media, and the cells were incubated for 3 hours at 37° C. 100 μL lysis solution (10% sodium dodecyl sulfate (SDS) and 0.01N HCl) was added and the absorbance of the media was read at OD570. The percentage of cell viability was calculated as follows:
Cell viability (%)=(OD570 of experimental well/OD570 of control well)×100%

In assay [2] the test system is SH-SY5Y cells. Kind of assay: Western blotting of calpain-2 and SBDP after MSG. Format: cell-based, Human. Conditions: 15 μM, 100 mM MSG, 6 hours. The procedure:
The levels of calpain-2 and SBDPs were measured by western blotting in 1×10^6 SH-SY5Y cells, wherein the control group (Ctrl) was untreated SH-SY5Y cells or the cells were treated with 100 mM MSG, 100 mM MSG+15 μM SB or 100 mM MSG+10 μM MK801 (MK) for 6 hours. Actin was used as a loading control.
In present embodiment, western blotting was performed to study whether silibinin protects SH-SY5Y cell from apoptosis due to glutamatergic excitotoxicity via calcium-dependent apoptosis pathway.
Calpain-2, a thiol proteinase, is activated by the increases of intracellular free calcium ions and the reduction of Bcl-2 level. The level of SBDPs was elevated by calcium-induced calpain-2 in glutamate-induced cell death. Therefore, calpain-2 and SBDPs were used as indicators in the present embodiment.
SH-SY5Y cells were treated with silibinin at pre-determined concentrations or 10 μM MK801 for 1 hour followed by the treatment of 100 mM MSG. Western blotting was performed to analyze the levels of calpain-2 and SBDP.

Assay [3] deals with SH-SY5Y cells. Kind of assay: JC-1 flow cytometry of mitochondria membrane potential (MMP). Conditions: 15 μM + 100 mM MSG. Format: cell-based, Human. As to the method:
FIGS. 7A and 7B show the effects of SB on mitochondria membrane potential (MMP) in SH-SY5Y cells treated with MSG measured by JC-1 staining with a flow cytometry, wherein the control group (Ctrl) was untreated SH-SY5Y cells or the cells were treated with 100 mM MSG, 100 mM MSG+15 μM SB, 100 mM MSG+10 μM MK801 (MK) or 5 μM CCCP (disruptor of electron transport chain) for 12 hours. […] The results were shown as mean±SEM, n=3, *p<0.05, comparing to the MSG treatment group.
In the present embodiment, flow cytometry analysis was used to investigate whether silibinin can prevent the reduction of mitochondria membrane potential induced by glutamate in SH-SY5Y cells.
SH-SY5Y cells were seeded in 6 centimeter dish (1×10^6 cells/plate) for 24 hours, and then were pre-treated with 15 μM silibinin or 10 μM MK-801 for 1 hour followed by the treatment of 100 mM MSG for 12 hours. 5 μM carbonyl cyanide m-chlorophenylhydrazone (CCCP) was added to the positive control group to induce the depolarization of mitochondria membrane potential.
The treated cells were washed, centrifuged and collected, followed by PBS wash and JC-1 dye staining for 30 minutes. The stained cells were re-suspended using phosphate buffer solution and analyzed by a flow cytometry to obtain a 2-dimensional scatter plot. 10,000 cells were recorded for each experiment.
For orientation: In flow cytometry, cells or beads pass a laser one at a time.

For the next assay, the system named is SCA17 transgenic mice. Kind of assay: Footprint pattern analysis in SCA17 transgenic mice. Format: in vivo. The following applies: 4.5 mg/kg i.p. once every 2 days. As to the method: FIGS. 10A-10F show the effects of SB on the body weight and motor performance in SCA17 transgenic mice. Mice were grouped into wild type-saline (WT-saline), transgenic-saline (TG-saline), and transgenic-SB treatment (TG-SB) groups. Mice were injected intraperitoneally with saline or SB (4.5 mg/kg) at 8-week old once every 2 days. […] FIG. 10E and FIG. 10F show respectively the stride length of front-limb/hind-limb at the right-side and the left-side. The values represent means±SD, n=6. *p<0.05, comparing to the TG-saline group.
Since the SCA17 mice were 8 weeks old, the mice were injected intraperitoneally with silibinin in saline at 4.5 mg/kg once every 2 days, designated as TG_SB group. The mice in TG_saline group were injected with same amount of saline.
In addition, footprint pattern analysis was conducted to observe any abnormity of the gait of the mice. Such test was conducted widely to determine motor skill, coordination and balance. The hindfeet and forefeet of the mouse were coated with red and blue nontoxic paint respectively, and the mouse was allowed to walk along a runway on a fresh sheet of white paper. The distance between the centers of the hind footprint and the fore footprint, the length of the step, and the parallel distance were measured for a continuous 6 steps, excluding the steps in the beginning and at the end. The test was performed once every half month.

In the case of `COc1cc(C2Oc3cc([C@H]4Oc5cc(O)cc(O)c5C(=O)[C@@H]4O)ccc3OC2CO)ccc1O` (stereo partly drawn) [silibinin], the IC50 with SH-SY5Y cells [1] amounted to 30 µM. Moreover, in the assay on SH-SY5Y cells [2], the “reduction of SBDP level, compared to the increased level with MSG only” value worked out at 250% and the “reduction of calpain-2 level, compared to the increased level with MSG only” value was 200%. Besides, the “MMP compared to Ctrl” value in the assay with SH-SY5Y cells [3] is reported as 85+13%. In addition, in the assay with SCA17 transgenic mice, the “overlapped length of footprints, left-paw” value was 0.8±0.1 cm and the “overlapped length of footprints, right-paw” value turned out to be 1.1±0.1 cm.
